Test results from US20120255051A1, “HERBICIDE TOLERANT PLANTS” (priority 2009, published 2012).

System: Brassica plants comprising mutant AHAS alleles
Assay: Field trial, pre-planting treatment (0, 10, 20, 30 g a.i./ha), two locations in Canada: ERG, EST1, EST2, PPTOX, VIG1, VIG2, VIG3 scores
Format: in vivo, Brassica napus
Details: for establishment (EST2) score, Av / phytotoxicity (PPTOX) score, Av / vigor1 (VIG1) score, Av / vigor2 (VIG2) score, Av: AHAS1 HETO108/AHAS3 HETO104
Text: Tests were set up and conducted to asses the growth and performance of plants comprising AHAS full knock-out alleles, and to further analyze the correlation between the presence of full knockout and missense AHAS genes in Brassica plants and plant growth and herbicide tolerance of the Brassica plants in the field. To this end, the Brassica plants identified in Example 1 and 2 were backcrossed two times with an elite parent line, and subsequently selfed twice to obtain homozygous plants (BC2S2). Plants were grown as row plots in a split plot design with three replicates (main plots=herbicide treatments, subplots=genotypes) at two locations in Canada. Treatment pre-planting was carried out on the soil about two days before sowing with a dose of 0 (treatment A), 10 (treatment B), 20 (treatment C) or 30 (treatment D) g a.i./ha of thiencarbazone methyl. Herbicide tolerance was measured by scoring for different parameters. The parameter emergence (ERG) was scored at the cotyledon stage on a scale 1-9, where 1 means late emergence and 9 means early emergence. Establishment was scored 14 days after sowing (EST1) and 21 days after sowing (EST2). Scores were from 1 to 9, where 1 is the worst establishment (least plants that emerged), and 9 is the best establishment (most plants emerged). Phytotoxicity (PPTOX) was determined after establishment. Plants were evaluated on a scale of 1 to 9, where 1=completely yellowing, 5=50% of plant is yellow and 9=no yellowing. The vigor scores (see above) were determined at 1-2 leaf stage (VIG1), 7 days after VIG1 (VIG2) and 14 days after VIG1 (VIG3). The average values (Av) and standard deviations (SD) of the scores for the different parameters are represented in Table 7a-g.
Further, the contribution of the knock-out allele to herbicide tolerance conferred by the missense allele was calculated. First, the scores were corrected for a possible effect of the growth per se, independent of herbicide treatment. To this end, the scores for treatments B, C and D were divided by the scores for treatment A for the same genotype and for the same parameter (corrected herbicide tolerance scores). Next, the effect of the knock-out allele to these corrected herbicide tolerance scores obtained by the missense allele was calculated. Therefore, the corrected herbicide tolerance scores for the missense—knock-out allele combination was divided by the corrected herbicide tolerance scores for the missense allele—wild-type combination. In case the knock-out allele has no effect on herbicide tolerance conferred by the missense allele, this ratio should be 1. In case the knock-out allele positively contributes to the herbicide tolerance conferred by the missense allele, this ratio should be higher than 1. The results for the contribution of the knock-out allele to herbicide tolerance conferred by the missense allele as calculated above are shown in table 8.

[1] = AHAS1 HETO108, AHAS3 HETO104, treatment B 10 g a.i./ha pre-planting, Location A
[2] = AHAS1 HETO108, AHAS3 HETO104, treatment B 10 g a.i./ha pre-planting, Location B
[3] = AHAS1 HETO108, AHAS3 HETO104, treatment C 20 g a.i./ha pre-planting, Location A
[4] = AHAS1 HETO108, AHAS3 HETO104, treatment C 20 g a.i./ha pre-planting, Location B
[5] = AHAS1 HETO108, AHAS3 HETO104, treatment D 30 g a.i./ha pre-planting, Location A
[6] = AHAS1 HETO108, AHAS3 HETO104, treatment D 30 g a.i./ha pre-planting, Location B
[7] = AHAS1 HETO108, AHAS3 HETO111, treatment B 10 g a.i./ha pre-planting, Location A
[8] = AHAS1 HETO108, AHAS3 HETO111, treatment B 10 g a.i./ha pre-planting, Location B
[9] = AHAS1 HETO108, AHAS3 HETO111, treatment C 20 g a.i./ha pre-planting, Location A
[10] = AHAS1 HETO108, AHAS3 HETO111, treatment C 20 g a.i./ha pre-planting, Location B
[11] = AHAS1 HETO108, AHAS3 HETO111, treatment D 30 g a.i./ha pre-planting, Location A
[12] = AHAS1 HETO108, AHAS3 HETO111, treatment D 30 g a.i./ha pre-planting, Location B
[13] = AHAS1 HETO108, AHAS3 WT (HETO108+HETO104 series), treatment B 10 g a.i./ha pre-planting, Location A
[14] = AHAS1 HETO108, AHAS3 WT (HETO108+HETO104 series), treatment B 10 g a.i./ha pre-planting, Location B
[15] = AHAS1 HETO108, AHAS3 WT (HETO108+HETO104 series), treatment C 20 g a.i./ha pre-planting, Location A
[16] = AHAS1 HETO108, AHAS3 WT (HETO108+HETO104 series), treatment C 20 g a.i./ha pre-planting, Location B
[17] = AHAS1 HETO108, AHAS3 WT (HETO108+HETO104 series), treatment D 30 g a.i./ha pre-planting, Location A
[18] = AHAS1 HETO108, AHAS3 WT (HETO108+HETO104 series), treatment D 30 g a.i./ha pre-planting, Location B
[19] = AHAS1 HETO108, AHAS3 WT (HETO108+HETO111 series), treatment B 10 g a.i./ha pre-planting, Location A
[20] = AHAS1 HETO108, AHAS3 WT (HETO108+HETO111 series), treatment B 10 g a.i./ha pre-planting, Location B
[21] = AHAS1 HETO108, AHAS3 WT (HETO108+HETO111 series), treatment C 20 g a.i./ha pre-planting, Location A
[22] = AHAS1 HETO108, AHAS3 WT (HETO108+HETO111 series), treatment C 20 g a.i./ha pre-planting, Location B
[23] = AHAS1 HETO108, AHAS3 WT (HETO108+HETO111 series), treatment D 30 g a.i./ha pre-planting, Location A
[24] = AHAS1 HETO108, AHAS3 WT (HETO108+HETO111 series), treatment D 30 g a.i./ha pre-planting, Location B
[25] = 10 g a.i./ha pre-planting (B), Location A
[26] = 10 g a.i./ha pre-planting (B), Location B
[27] = 20 g a.i./ha pre-planting (C), Location A
[28] = 20 g a.i./ha pre-planting (C), Location B

COC(=O)c1csc(C)c1S(=O)(=O)NC(=O)n1nc(OC)n(C)c1=O [thiencarbazone-methyl, methyl 4-[(4,5-dihydro-3-methoxy-4-methyl-5-oxo-1H-1,2,4-triazol-1-yl)carbonylsulfamoyl]-5-methylthiophene-3-carboxylate]
emergence (ERG) score Av [1]: 6.00 | establishment (EST1) score Av, 14 days after sowing [1]: 6.33 | emergence (ERG) score Av [2]: 4.00 | establishment (EST1) score Av, 14 days after sowing [2]: 5.00 | emergence (ERG) score Av [3]: 4.00 | establishment (EST1) score Av, 14 days after sowing [3]: 4.00 | emergence (ERG) score Av [4]: 5.00 | establishment (EST1) score Av, 14 days after sowing [4]: 5.00 | emergence (ERG) score Av [5]: 5.00 | establishment (EST1) score Av, 14 days after sowing [5]: 5.00 | emergence (ERG) score Av [6]: 4.67 | establishment (EST1) score Av, 14 days after sowing [6]: 5.33 | emergence (ERG) score Av [7]: 5.33 | establishment (EST1) score Av, 14 days after sowing [7]: 6.00 | emergence (ERG) score Av [8]: 4.33 | establishment (EST1) score Av, 14 days after sowing [8]: 6.00 | emergence (ERG) score Av [9]: 4.67 | establishment (EST1) score Av, 14 days after sowing [9]: 5.33 | emergence (ERG) score Av [10]: 5.00 | establishment (EST1) score Av, 14 days after sowing [10]: 5.67 | emergence (ERG) score Av [11]: 5.00 | establishment (EST1) score Av, 14 days after sowing [11]: 5.33 | emergence (ERG) score Av [12]: 4.33 | establishment (EST1) score Av, 14 days after sowing [12]: 3.67 | emergence (ERG) score Av [13]: 6.67 | establishment (EST1) score Av, 14 days after sowing [13]: 6.67 | emergence (ERG) score Av [14]: 4.33 | establishment (EST1) score Av, 14 days after sowing [14]: 4.67 | emergence (ERG) score Av [15]: 5.00 | establishment (EST1) score Av, 14 days after sowing [15]: 5.00 | emergence (ERG) score Av [16]: 4.33 | establishment (EST1) score Av, 14 days after sowing [16]: 4.67 | emergence (ERG) score Av [17]: 4.67 | establishment (EST1) score Av, 14 days after sowing [17]: 4.67 | emergence (ERG) score Av [18]: 5.00 | establishment (EST1) score Av, 14 days after sowing [18]: 5.33 | emergence (ERG) score Av [19]: 6.33 | establishment (EST1) score Av, 14 days after sowing [19]: 6.33 | emergence (ERG) score Av [20]: 4.33 | establishment (EST1) score Av, 14 days after sowing [20]: 5.33 | emergence (ERG) score Av [21]: 5.33 | establishment (EST1) score Av, 14 days after sowing [21]: 6.00 | emergence (ERG) score Av [22]: 5.00 | establishment (EST1) score Av, 14 days after sowing [22]: 5.67 | emergence (ERG) score Av [23]: 5.00 | establishment (EST1) score Av, 14 days after sowing [23]: 5.33 | emergence (ERG) score Av [24]: 3.33 | establishment (EST1) score Av, 14 days after sowing [24]: 3.67 | establishment (EST2) score, Av [25]: 6.33 | phytotoxicity (PPTOX) score, Av [25]: 6.00 | vigor1 (VIG1) score, Av [25]: 6.33 | vigor2 (VIG2) score, Av [25]: 7.33 | establishment (EST2) score, Av [26]: 5.00 | vigor2 (VIG2) score, Av [26]: 5.00 | establishment (EST2) score, Av [27]: 4.33 | vigor1 (VIG1) score, Av [27]: 5.00 | vigor2 (VIG2) score, Av [27]: 6.00 | establishment (EST2) score, Av [28]: 5.00 | phytotoxicity (PPTOX) score, Av [28]: 6.00 | vigor1 (VIG1) score, Av [28]: 5.00
